This passage reports IC50 results from the Kinase Knowledgebase extract (Sharma et al. 2016).

The IC50 is the concentration that inhibits the measured activity by half. A low value points to inhibition by little substance.

Bounds are passed on as bounds.

The assay deals with CDK2 (human) (UniProt P24941). The assay can be described thus: Enzyme Assay.
For `CNCc1ccc(NC(=O)c2ccc(C(=O)Nc3ccc(-n4cncn4)c(F)c3)s2)c(C)c1`, the IC50 lay in the range of 1 to 40 µM.
The same measure for `CN(Cc1ccccc1)C(=O)c1ccc(C(=O)Nc2ccc(-n3cncn3)cc2)s1`: at least 40 µM; for `COc1ccc(NC(=O)c2ccc(C(=O)Nc3ccc4c(cnn4C)c3)s2)c(C)c1`: at least 40 µM.
Next, `O=C(Nc1ccc(-n2cncn2)cc1)c1ccc(C(=O)N2CCc3ccccc3C2)s1`: 1 to 40 µM; `CN(C(=O)c1ccc(C(=O)Nc2ccc(-n3cncn3)c(F)c2)o1)C1CCCCC1`: at least 40 µM; `O=C(Nc1ccc(-n2cncn2)cc1)c1ccc(C(=O)Nc2cc(-c3ccco3)n[nH]2)s1`: at least 40 µM.
`Cc1cnc(CNC(=O)c2ccc(C(=O)Nc3ccc(-n4cncn4)cc3)s2)cn1` gave an IC50 of at least 40 µM.
For `Cc1cc(OCCN2CCOCC2)ccc1NC(=O)c1ccc(C(=O)Nc2ccc(-n3cncn3)cc2)s1`, the IC50 is at most 1 µM.
Next, `O=C(NCc1ccccn1)c1ccc(C(=O)Nc2ccc(-n3cncn3)cc2)s1`: at least 40 µM.
The same measure for `O=C(NCCc1ccccn1)c1ccc(C(=O)Nc2ccc(-n3cncn3)cc2)s1`: at least 40 µM; for `Cn1nc(C2CC2)cc1NC(=O)c1ccc(C(=O)Nc2ccc(-n3cncn3)cc2)s1`: 1 to 40 µM; for `COc1ccc(NC(=O)c2ccc(C(=O)Nc3ccc(N4CCCCC4)cc3)s2)c(C)c1`: at least 40 µM.
Regarding `O=C(Nc1ccc(-n2cncn2)cc1)c1ccc(C(=O)Nc2cccc(O)c2)s1`, the concentration for half-maximal inhibition (IC50) was at least 40 µM.
Next, `O=C(NCCN1CCCC1)c1ccc(C(=O)Nc2ccc(-n3cncn3)cc2)s1`: 1 to 40 µM; `COc1ccc(NC(=O)c2ccc(C(=O)Nc3ccc(C#N)cc3)s2)c(C)c1`: at least 40 µM; `Cc1cccc(NC(=O)c2ccc(C(=O)Nc3ccc(-n4cncn4)cc3)s2)n1`: at least 40 µM.
The same measure for `CN(C(=O)c1ccc(C(=O)Nc2ccc(-n3cncn3)cc2)s1)C1CCCCC1`: at most 1 µM; for `Cc1cc(NCCN(C)C)ccc1NC(=O)c1ccc(C(=O)Nc2ccc(-n3cncn3)cc2)s1`: 1 to 40 µM; for `COc1ccc(NC(=O)c2ccc(C(=O)Nc3ccc(-c4nnn[nH]4)cc3)s2)c(C)c1`: at least 40 µM.
In turn, `Cc1ccccc1NC(=O)c1ccc(C(=O)Nc2ccc(-n3cncn3)cc2)s1` displayed an IC50 of at most 1 µM.
Next, `COc1ccc(NC(=O)c2ccc(C(=O)Nc3ccc(-n4cncn4)cc3)o2)c(C)c1`: at most 1 µM; `O=C(NC[C@H](O)c1ccccc1)c1ccc(C(=O)Nc2ccc(-n3cncn3)cc2)s1`: at least 40 µM; `Cc1ccccc1C(=O)Nc1ccc(C(=O)Nc2ccc(-n3cncn3)cc2)o1`: at least 40 µM.
The same measure for `O=C(Nc1ccc(-n2cncn2)c(F)c1)c1ccc(C(=O)Nc2ccccc2OCc2ccncc2)s1`: at least 40 µM.
Next, `O=C(Nc1ccc(-n2cncn2)cc1)c1ccc(NC(=O)C2CCCCC2)o1`: at least 40 µM; `O=C(Nc1ccc(-n2cncn2)cc1)c1ccc(C(=O)NC2CCCCC2)s1`: at least 40 µM; `COc1ccc(NC(=O)c2ccc(C(=O)Nc3ccc(F)cc3-n3cncn3)s2)c(C)c1`: 1 to 40 µM.
Consider `COc1ccc(C(=O)Nc2ccc(C(=O)Nc3ccc(-n4ccnc4)cc3)o2)c(C)c1`, for which the half-maximal inhibitory concentration (IC50) is at least 40 µM.
Next, `O=C(Nc1ccc(C(=O)Nc2ccc(-n3cncn3)cc2)s1)c1ccncc1`: at least 40 µM; `CC(C)CNC(=O)c1ccc(C(=O)Nc2ccc(-n3cncn3)cc2)s1`: at least 40 µM.
Next, `COc1ccc(C(=O)Nc2ccc(C(=O)N3CCC(c4ccncc4)C3)s2)c(C)c1` (stereo not drawn): at least 40 µM; `COc1cccc(C2CCN(C(=O)c3ccc(C(=O)Nc4ccc(-n5cncn5)cc4)s3)C2)c1` (stereo not drawn): at least 40 µM.
Next, `COc1ccccc1NC(=O)c1ccc(C(=O)Nc2ccc(-n3cncn3)cc2)s1`: at least 40 µM.
For the compound `O=C(Nc1ccc(-n2cncn2)c(F)c1)c1ccc(C(=O)Nc2ccccc2OC2CCCCC2)s1`, the IC50 was at least 40 µM.
`O=C(Nc1ccc(-n2cncn2)cc1)c1ccc(C(=O)N[C@@H]2CC3CCC2C3)s1` (stereo partly drawn) yielded an IC50 of at least 40 µM.
The same measure for `COc1ccc(NC(=O)c2ccc(C(=O)Nc3ccc4scnc4c3)s2)c(C)c1`: at least 40 µM; for `O=C(Nc1ccc(-n2cncn2)cc1)c1ccc(C(=O)Nc2ccccc2Cl)s1`: at least 40 µM; for `COc1ccc(NC(=O)c2ccc(C(=O)Nc3ccc(-n4cncn4)cc3)s2)cc1OC`: at least 40 µM.
The compound `Cc1cc(O)ccc1NC(=O)c1ccc(C(=O)Nc2ccc(-n3cncn3)cc2)s1` registered an IC50 of at most 1 µM.
Next, `O=C(Nc1ccc(-n2cncn2)cc1)c1ccc(C(=O)Nc2ccc3ncsc3c2)s1`: at least 40 µM.
As for `O=C(Nc1ccc(-n2cncn2)c(F)c1)c1ccc(C(=O)Nc2ccccc2F)s1`, the IC50 is at most 1 µM.
For the compound `COc1ccc(NC(=O)c2ccc(C(=O)Nc3ccc(-c4csnn4)cc3)s2)c(C)c1`, the IC50 is at least 40 µM.
`Cc1ccccc1C(=O)Nc1ccc(C(=O)Nc2ccc(-n3cncn3)cc2)s1` came in with an IC50 of at most 1 µM.
`CN1CCC(NC(=O)c2ccc(C(=O)Nc3ccc(-n4cncn4)cc3)s2)CC1`: the IC50 was at least 40 µM.
The same measure for `O=C(NC[C@H]1CCCO1)c1ccc(C(=O)Nc2ccc(-n3cncn3)cc2)s1`: at least 40 µM.
The same measure for `O=C(Nc1ccc(Cl)cc1)c1ccc(C(=O)Nc2ccc(-n3cncn3)cc2)s1`: 1 to 40 µM; for `COc1ccc(NC(=O)c2ccc(C(=O)Nc3ccc4nc(C)ccc4c3)s2)c(C)c1`: at least 40 µM; for `O=C(Nc1ccc(C(=O)Nc2ccc(-n3cncn3)cc2)o1)c1ccncc1`: at least 40 µM.
Next, `CN1CCN(C(=O)c2ccc(C(=O)Nc3ccc(-n4cncn4)cc3)s2)CC1`: at least 40 µM; `O=C(Nc1ccc(-n2cncn2)c(F)c1)c1ccc(C(=O)Nc2ccccc2-n2cccn2)s1`: at least 40 µM.
`COc1cccc(NC(=O)c2ccc(C(=O)Nc3ccc(-n4cncn4)cc3)s2)c1OC`: the IC50 was in the range of 1 to 40 µM.
In turn, `Cc1cc(CN2CCOCC2)ccc1NC(=O)c1ccc(C(=O)Nc2ccc(-n3cncn3)cc2)s1` showed an IC50 of at most 1 µM.
`O=C(Nc1ccc(-n2cncn2)cc1)c1ccc(C(=O)N[C@@H]2CCNC2)s1` yielded a half-inhibitory concentration (IC50) of at least 40 µM.
`O=C(NCC1CCCCC1)c1ccc(C(=O)Nc2ccc(-n3cncn3)cc2)s1` showed an IC50 of at least 40 µM.
Next, `Cc1ccsc1CNC(=O)c1ccc(C(=O)Nc2ccc(-n3cncn3)cc2)s1`: 1 to 40 µM; `O=C(Nc1ccc(-n2cncn2)cc1)c1ccc(C(=O)N2CCCCC2)s1`: at least 40 µM.
As to `COc1ccc(C(=O)Nc2ccc(C(=O)Nc3ccc(-n4cncn4)c(F)c3)s2)c(C)c1`, the half-inhibitory concentration (IC50) is at most 1 µM.
Compound `COc1ccc(NC(=O)c2ccc(C(=O)Nc3ccc(N4CCN(C)CC4)cc3)s2)c(C)c1` displayed an IC50 of at least 40 µM.
Compound `Cc1cc(CNC(=O)c2ccc(C(=O)Nc3ccc(-n4cncn4)cc3)s2)no1` returned an IC50 of at least 40 µM.
Take `Cc1cc(N[C@H]2CCNC2)ccc1NC(=O)c1ccc(C(=O)Nc2ccc(-n3cncn3)cc2)s1`: the IC50 is at most 1 µM.
The same measure for `O=C(NCCN1CCOCC1)c1ccc(C(=O)Nc2ccc(-n3cncn3)cc2)s1`: at least 40 µM; for `COc1ccc(C(=O)Nc2ccc(C(=O)Nc3ccc(-n4cncn4)cc3)o2)cc1`: at least 40 µM.
In the case of `Cc1ccccc1NC(=O)c1ccc(C(=O)Nc2ccc(-n3cncn3)cc2)o1`, the IC50 is at most 1 µM.
The same measure for `Cc1cc(C)nc(NC(=O)c2ccc(C(=O)Nc3ccc(-n4cncn4)cc3)s2)c1`: at least 40 µM; for `COc1ccc(NC(=O)c2ccc(C(=O)Nc3ccc4sc(SC)nc4c3)s2)c(C)c1`: at least 40 µM.
The same measure for `CN1CCN(c2ccccc2NC(=O)c2ccc(C(=O)Nc3ccc(-n4cncn4)c(F)c3)s2)CC1`: at least 40 µM; for `COc1ccc(C(=O)Nc2ccc(C(=O)N3CCC(c4ccccn4)C3)s2)c(C)c1` (stereo not drawn): at least 40 µM; for `O=C(Nc1ccccc1)c1ccc(C(=O)Nc2ccc(-n3cncn3)cc2)o1`: 1 to 40 µM.
Next, `O=C(Nc1ccc(-n2cncn2)cc1)c1ccc(C(=O)N[C@@H]2CCc3ccccc32)s1`: at least 40 µM; `Cn1cnc(CCNC(=O)c2ccc(C(=O)Nc3ccc(-n4cncn4)cc3)s2)c1`: at least 40 µM.
`CN(C)CCNC(=O)c1ccc(C(=O)Nc2ccc(-n3cncn3)cc2)s1`: the 50% inhibitory concentration (IC50) was at least 40 µM.
In turn, `COc1ccc(NC(=O)c2ccc(C(=O)N3CCC(Oc4cnccn4)CC3)s2)c(C)c1` came in with an IC50 of 1 to 40 µM.
Next, `O=C(Nc1ccc(-n2cncn2)cc1)c1ccc(C(=O)NC2CC2)s1`: at least 40 µM.
Next, `O=C(Nc1ccc(-n2cncn2)cc1)c1ccc(C(=O)N2CCCC2c2cccnc2)s1` (stereo not drawn): at least 40 µM; `COc1ccc(NC(=O)c2ccc(C(=O)Nc3ccc(Cn4ccnc4)cc3)s2)c(C)c1`: at least 40 µM; `Cc1cc(CN2CCN(C)CC2)ccc1NC(=O)c1ccc(C(=O)Nc2ccc(-n3cncn3)c(F)c2)s1`: at most 1 µM.
`CN(C(=O)c1ccc(C(=O)Nc2ccc(-n3cncn3)cc2)s1)c1ccccc1` displayed an IC50 of at least 40 µM.
Compound `O=C(Nc1ccccc1)c1ccc(C(=O)Nc2ccc(-n3cncn3)cc2)s1` returned an IC50 of at least 40 µM.
The same measure for `Cn1nc(-c2ccccc2)cc1NC(=O)c1ccc(C(=O)Nc2ccc(-n3cncn3)cc2)s1`: 1 to 40 µM.
Turning to `O=C(Nc1ccc(-n2cncn2)c(F)c1)c1ccc(C(=O)N2CCOCC2)o1`, the IC50 was at least 40 µM.
Take `CC(=O)N1CCC(NC(=O)c2ccc(C(=O)Nc3ccc(-n4cncn4)cc3)s2)CC1`: the IC50 lay in the range of 1 to 40 µM.
The same measure for `Cc1cc(OCCN2CCN(C)CC2)ccc1NC(=O)c1ccc(C(=O)Nc2ccc(-n3cncn3)cc2)s1`: at most 1 µM.
Next, `O=C(NC[C@@H]1CCNC1)c1ccc(C(=O)Nc2ccc(-n3cncn3)cc2)s1`: at least 40 µM; `O=C(Nc1ccc(-n2cncn2)cc1)c1ccc(C(=O)Nc2nc3c(s2)CCCC3)s1`: 1 to 40 µM.
With `COc1ccc(NC(=O)c2ccc(C(=O)N3CCC(c4ccncc4)C3)s2)c(C)c1` (stereo not drawn), the IC50 lay within 1 to 40 µM.
Next, `COc1ccc(NC(=O)c2ccc(C(=O)Nc3ccc(-n4cncn4)cc3)s2)cc1O`: at least 40 µM; `O=C(Nc1ccc(-n2cncn2)cc1)c1ccc(C(=O)N2CCOCC2)s1`: at least 40 µM; `COc1ccc(NC(=O)c2ccc(C(=O)Nc3ccc(N(C)C)cc3)s2)c(C)c1`: at least 40 µM.
